# In ChEMBL document CHEMBL3400015, “Tertiary amides of Salinomycin: A new group of antibacterial agents against Bacillus anthracis and methicillin-resistant Staphylococcus epidermidis” (Bioorg Med Chem Lett, 2015):
# What was measured:
# Assay type in all cases: functional
# Staphylococcus aureus [1] = experiment: Antimicrobial activity against Staphylococcus aureus ATCC 25923 after 18 hrs by twofold serial broth dilution method; conditions: ATCC 25923, 18 h
# Staphylococcus aureus [2] = experiment: Antimicrobial activity against Staphylococcus aureus […] after 18 hrs by twofold serial broth dilution method
# [3] = tested on: Staphylococcus epidermidis; experiment: Antimicrobial activity against Staphylococcus epidermidis ATCC 35984 after 18 hrs by twofold serial broth dilution method; conditions: ATCC 35984, 18 h
# Escherichia coli [4] = experiment: Antimicrobial activity against Escherichia coli ATCC 10538 after 18 hrs by twofold serial broth dilution method; conditions: ATCC 10538, 18 h
# Escherichia coli [5] = experiment: Antimicrobial activity against Escherichia coli ATCC 25922 after 18 hrs by twofold serial broth dilution method; conditions: ATCC 25922, 18 h
# Escherichia coli [6] = experiment: Antimicrobial activity against Escherichia coli NCTC 8196 after 18 hrs by twofold serial broth dilution method; conditions: NCTC 8196, 18 h
# Pseudomonas aeruginosa [7] = experiment: Antimicrobial activity against Pseudomonas aeruginosa ATCC 15442 after 18 hrs by twofold serial broth dilution method; conditions: ATCC 15442, 18 h
# Pseudomonas aeruginosa [8] = experiment: Antimicrobial activity against Pseudomonas aeruginosa NCTC 6749 after 18 hrs by twofold serial broth dilution method; conditions: NCTC 6749, 18 h
# Pseudomonas aeruginosa [9] = experiment: Antimicrobial activity against Pseudomonas aeruginosa ATCC 27853 after 18 hrs by twofold serial broth dilution method; conditions: ATCC 27853, 18 h
# Bacillus anthracis = experiment: Antimicrobial activity against Bacillus anthracis 34F2 after 18 hrs by twofold serial broth dilution method; conditions: 34F2, 18 h
# Staphylococcus aureus [10] = experiment: Bactericidal activity against Staphylococcus aureus NCTC 4163 after 24 hrs; conditions: NCTC 4163, 24 h, read-out: MBC99.9
# Staphylococcus aureus [11] = experiment: Bactericidal activity against Staphylococcus aureus ATCC 6538 after 24 hrs; conditions: ATCC 6538, 24 h, read-out: MBC99.9
# Staphylococcus aureus [12] = experiment: Bactericidal activity against Staphylococcus aureus […] after 24 hrs; conditions: read-out: MBC99.9
# [13] = tested on: Staphylococcus epidermidis; experiment: Bactericidal activity against Staphylococcus epidermidis ATCC 12228 after 24 hrs; conditions: ATCC 12228, 24 h, read-out: MBC99.9
# [14] = tested on: Staphylococcus epidermidis; experiment: Bactericidal activity against Staphylococcus epidermidis ATCC 35984 after 24 hrs; conditions: ATCC 35984, 24 h, read-out: MBC99.9
# Escherichia coli [15] = experiment: Bactericidal activity against Escherichia coli ATCC 10538 after 24 hrs; conditions: ATCC 10538, 24 h, read-out: MBC99.9
# Escherichia coli [16] = experiment: Bactericidal activity against Escherichia coli ATCC 25922 after 24 hrs; conditions: ATCC 25922, 24 h, read-out: MBC99.9
# Escherichia coli [17] = experiment: Bactericidal activity against Escherichia coli NCTC 8196 after 24 hrs; conditions: NCTC 8196, 24 h, read-out: MBC99.9
# Pseudomonas aeruginosa [18] = experiment: Bactericidal activity against Pseudomonas aeruginosa ATCC 15442 after 24 hrs; conditions: ATCC 15442, 24 h, read-out: MBC99.9
# Pseudomonas aeruginosa [19] = experiment: Bactericidal activity against Pseudomonas aeruginosa NCTC 6749 after 24 hrs; conditions: NCTC 6749, 24 h, read-out: MBC99.9
# Pseudomonas aeruginosa [20] = experiment: Bactericidal activity against Pseudomonas aeruginosa ATCC 27853 after 24 hrs; conditions: ATCC 27853, 24 h, read-out: MBC99.9
# [21] = tested on: Staphylococcus epidermidis; experiment: Antimicrobial activity against methicillin-resistant Staphylococcus epidermidis isolate 403/10 after 18 hrs by twofold serial broth dilution method; conditions: isolate 403/10, 18 h
# [22] = tested on: Staphylococcus epidermidis; experiment: Antimicrobial activity against methicillin-resistant Staphylococcus epidermidis isolate 407/10 after 18 hrs by twofold serial broth dilution method; conditions: isolate 407/10, 18 h
# [23] = tested on: Staphylococcus epidermidis; experiment: Antimicrobial activity against methicillin-resistant Staphylococcus epidermidis isolate 422/10 after 18 hrs by twofold serial broth dilution method; conditions: isolate 422/10, 18 h
# [24] = tested on: Staphylococcus epidermidis; experiment: Antimicrobial activity against methicillin-resistant Staphylococcus epidermidis isolate 424/10 after 18 hrs by twofold serial broth dilution method; conditions: isolate 424/10, 18 h
# [25] = tested on: Staphylococcus epidermidis; experiment: Antimicrobial activity against methicillin-resistant Staphylococcus epidermidis isolate 454/11 after 18 hrs by twofold serial broth dilution method; conditions: isolate 454/11, 18 h
# [26] = tested on: Staphylococcus epidermidis; experiment: Antimicrobial activity against methicillin-resistant Staphylococcus epidermidis isolate 455/11 after 18 hrs by twofold serial broth dilution method; conditions: isolate 455/11, 18 h
# [27] = tested on: Staphylococcus epidermidis; experiment: Antimicrobial activity against methicillin-resistant Staphylococcus epidermidis isolate 457/11 after 18 hrs by twofold serial broth dilution method; conditions: isolate 457/11, 18 h
# [28] = tested on: Staphylococcus epidermidis; experiment: Antimicrobial activity against methicillin-resistant Staphylococcus epidermidis isolate 458/11 after 18 hrs by twofold serial broth dilution method; conditions: isolate 458/11, 18 h
# [29] = tested on: Staphylococcus epidermidis; experiment: Antimicrobial activity against methicillin-resistant Staphylococcus epidermidis isolate 459/11 after 18 hrs by twofold serial broth dilution method; conditions: isolate 459/11, 18 h
# [30] = tested on: Staphylococcus epidermidis; experiment: Antimicrobial activity against methicillin-resistant Staphylococcus epidermidis isolate 460/11 after 18 hrs by twofold serial broth dilution method; conditions: isolate 460/11, 18 h
# [31] = tested on: Staphylococcus epidermidis; experiment: Antimicrobial activity against methicillin-resistant Staphylococcus epidermidis isolate 469/11 after 18 hrs by twofold serial broth dilution method; conditions: isolate 469/11, 18 h
# [32] = tested on: Staphylococcus epidermidis; experiment: Antimicrobial activity against methicillin-resistant Staphylococcus epidermidis isolate 470/11 after 18 hrs by twofold serial broth dilution method; conditions: isolate 470/11, 18 h
# [33] = tested on: Staphylococcus epidermidis; experiment: Bactericidal activity against methicillin-resistant Staphylococcus epidermidis isolate 403/10 after 24 hrs; conditions: isolate 403/10, 24 h, read-out: MBC99.9
# [34] = tested on: Staphylococcus epidermidis; experiment: Bactericidal activity against methicillin-resistant Staphylococcus epidermidis isolate 404/10 after 24 hrs; conditions: isolate 404/10, 24 h, read-out: MBC99.9
# [35] = tested on: Staphylococcus epidermidis; experiment: Bactericidal activity against methicillin-resistant Staphylococcus epidermidis isolate 407/10 after 24 hrs; conditions: isolate 407/10, 24 h, read-out: MBC99.9
# [36] = tested on: Staphylococcus epidermidis; experiment: Bactericidal activity against methicillin-resistant Staphylococcus epidermidis isolate 424/10 after 24 hrs; conditions: isolate 424/10, 24 h, read-out: MBC99.9
# [37] = tested on: Staphylococcus epidermidis; experiment: Bactericidal activity against methicillin-resistant Staphylococcus epidermidis isolate 455/11 after 24 hrs; conditions: isolate 455/11, 24 h, read-out: MBC99.9
# [38] = tested on: Staphylococcus epidermidis; experiment: Bactericidal activity against methicillin-resistant Staphylococcus epidermidis isolate 458/11 after 24 hrs; conditions: isolate 458/11, 24 h, read-out: MBC99.9
# [39] = tested on: Staphylococcus epidermidis; experiment: Bactericidal activity against methicillin-resistant Staphylococcus epidermidis isolate 459/11 after 24 hrs; conditions: isolate 459/11, 24 h, read-out: MBC99.9
# [40] = tested on: Staphylococcus epidermidis; experiment: Bactericidal activity against methicillin-resistant Staphylococcus epidermidis isolate 460/11 after 24 hrs; conditions: isolate 460/11, 24 h, read-out: MBC99.9
# [41] = tested on: Staphylococcus epidermidis; experiment: Bactericidal activity against methicillin-resistant Staphylococcus epidermidis isolate 461/11 after 24 hrs; conditions: isolate 461/11, 24 h, read-out: MBC99.9
structure (smiles),measurement,setting,value
CCCCCCCCN(CCCCCCCC)C(=O)[C@H](CC)[C@H]1CC[C@H](C)[C@H]([C@@H](C)[C@H](O)[C@H](C)C(=O)[C@H](CC)[C@H]2O[C@]3(C=C[C@@H](O)[C@]4(CC[C@@](C)([C@H]5CC[C@](O)(CC)[C@H](C)O5)O4)O3)[C@H](C)C[C@@H]2C)O1,MIC,Staphylococcus aureus [1],128 µg/mL
same,MIC,Staphylococcus aureus [2],256 µg/mL
same,MIC,[3],128 µg/mL
same,MIC,Escherichia coli [4],> 256 µg/mL
same,MIC,Escherichia coli [5],> 256 µg/mL
same,MIC,Escherichia coli [6],> 256 µg/mL
same,MIC,Pseudomonas aeruginosa [7],> 256 µg/mL
same,MIC,Pseudomonas aeruginosa [8],> 256 µg/mL
same,MIC,Pseudomonas aeruginosa [9],> 256 µg/mL
same,MIC,Bacillus anthracis,64 µg/mL
same,MBC,Staphylococcus aureus [10],> 256 µg/mL
same,MBC,Staphylococcus aureus [11],> 256 µg/mL
same,MBC,Staphylococcus aureus [12],> 256 µg/mL
same,MBC,[13],> 256 µg/mL
same,MBC,[14],> 256 µg/mL
same,MBC,Escherichia coli [15],> 256 µg/mL
same,MBC,Escherichia coli [16],> 256 µg/mL
same,MBC,Escherichia coli [17],> 256 µg/mL
same,MBC,Pseudomonas aeruginosa [18],> 256 µg/mL
same,MBC,Pseudomonas aeruginosa [19],> 256 µg/mL
same,MBC,Pseudomonas aeruginosa [20],> 256 µg/mL
same,MIC,[21],256 µg/mL
same,MIC,[22],256 µg/mL
same,MIC,[23],256 µg/mL
same,MIC,[24],> 256 µg/mL
same,MIC,[25],> 256 µg/mL
same,MIC,[26],> 256 µg/mL
same,MIC,[27],256 µg/mL
same,MIC,[28],256 µg/mL
same,MIC,[29],256 µg/mL
same,MIC,[30],256 µg/mL
same,MIC,[31],256 µg/mL
same,MIC,[32],256 µg/mL
same,MBC,[33],> 256 µg/mL
same,MBC,[34],> 256 µg/mL
same,MBC,[35],> 256 µg/mL
same,MBC,[36],> 256 µg/mL
same,MBC,[37],> 256 µg/mL
same,MBC,[38],> 256 µg/mL
same,MBC,[39],> 256 µg/mL
same,MBC,[40],> 256 µg/mL
same,MBC,[41],> 256 µg/mL
O=C(O)c1cn(C2CC2)c2cc(N3CCNCC3)c(F)cc2c1=O [CIPROFLOXACIN],MIC,Staphylococcus aureus [1],0.5 µg/mL
same,MIC,Staphylococcus aureus [2],0.5 µg/mL
same,MIC,[3],0.125 µg/mL
same,MIC,Pseudomonas aeruginosa [8],0.0625 µg/mL
same,MBC,Staphylococcus aureus [10],0.5 µg/mL
same,MBC,Staphylococcus aureus [12],2 µg/mL
same,MBC,[13],1 µg/mL
same,MBC,[14],0.5 µg/mL
same,MBC,Escherichia coli [15],0.0016 µg/mL
same,MBC,Escherichia coli [16],0.0016 µg/mL
same,MBC,Escherichia coli [17],0.0016 µg/mL
same,MBC,Pseudomonas aeruginosa [18],0.25 µg/mL
same,MBC,Pseudomonas aeruginosa [19],0.125 µg/mL
same,MBC,Pseudomonas aeruginosa [20],0.25 µg/mL
same,MIC,[21],8 µg/mL
same,MIC,[22],64 µg/mL
same,MIC,[23],2 µg/mL
same,MIC,[24],8 µg/mL
same,MIC,[25],0.0625 µg/mL
same,MIC,[26],32 µg/mL
same,MIC,[27],32 µg/mL
same,MIC,[28],32 µg/mL
same,MIC,[29],32 µg/mL
same,MIC,[30],0.125 µg/mL
same,MIC,[31],8 µg/mL
same,MIC,[32],0.125 µg/mL
same,MBC,[33],128 µg/mL
same,MBC,[34],> 256 µg/mL
same,MBC,[35],> 256 µg/mL
same,MBC,[36],256 µg/mL
same,MBC,[37],> 256 µg/mL
same,MBC,[38],> 256 µg/mL
same,MBC,[39],> 256 µg/mL
same,MBC,[40],0.5 µg/mL
same,MBC,[41],1 µg/mL
